The values below are quoted from earlier work in article PMC8201747, “Cell Permeability of Isomeric Macrocycles: Predictions and NMR Studies” (ACS Medicinal Chemistry Letters, 2021).

SMILES strings stand for the structures.

This data set concerns Caco-2 cell monolayer. As to conditions: Table S17, reported previously, ref 13 (SI); for ER (efflux ratio): Caco-2. (In general: Caco-2 monolayers are a common model of the intestinal barrier.)

Turning to `CO[C@H]1CN(C)C(=O)c2cc(C#N)ccc2OC[C@@H]2O[C@H](CC[C@H]2OC)CCN(C)C(=O)[C@@H]1C` [Macrocycle 5], the “ER (efflux ratio)” value is 1.40 and the “Permeability (passive permeability across a Caco-2 cell monolayer, Papp AB+inhibitor cocktail)” value is 1.89 ×10⁻⁶ cm/s.

On to `CO[C@@H]1CC[C@@H]2CCN(C)C(=O)[C@H](C)[C@H](OC)CN(C)C(=O)c3cccc(C#N)c3OC[C@@H]1O2` [Macrocycle 6], for which the “ER (efflux ratio)” value was 0.81 and the “Permeability (passive permeability across a Caco-2 cell monolayer, Papp AB+inhibitor cocktail)” value is 23.08 ×10⁻⁶ cm/s.

As for `CO[C@H]1CN(C)C(=O)c2cccc(C#N)c2OC[C@@H]2O[C@H](CC[C@H]2OC)CCN(C)C(=O)[C@@H]1C` [Macrocycle 7], the “ER (efflux ratio)” value is 0.78 and the “Permeability (passive permeability across a Caco-2 cell monolayer, Papp AB+inhibitor cocktail)” value was 6.36 ×10⁻⁶ cm/s.
